Data on 1 molecule can be found in patent US11951210B2, “Methods for making giant vesicles and their use” (THE JOHNS HOPKINS UNIVERSITY, priority 2017, dated 2024).

The structures appear in SMILES notation.

This series has as its target FKBP (FK506 binding protein) and FRB (FKBP-rapamycin binding) protein (Homo sapiens, UniProt P42345+P62942). Description: Chemically inducible dimerization (FKBP/FRB) protein translocation in GUVs on external rapamycin. Format: biochemical. To be noted: rapamycin added outside the vesicles.

Chain of FKBP (FK506 binding protein) and FRB (FKBP-rapamycin binding) protein (P62942 whole entry): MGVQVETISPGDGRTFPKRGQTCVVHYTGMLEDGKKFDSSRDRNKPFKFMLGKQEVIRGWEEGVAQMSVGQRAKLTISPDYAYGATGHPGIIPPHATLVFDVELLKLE
Chain of FKBP (FK506 binding protein) and FRB (FKBP-rapamycin binding) protein (P42345 2012-2144 limits assumed): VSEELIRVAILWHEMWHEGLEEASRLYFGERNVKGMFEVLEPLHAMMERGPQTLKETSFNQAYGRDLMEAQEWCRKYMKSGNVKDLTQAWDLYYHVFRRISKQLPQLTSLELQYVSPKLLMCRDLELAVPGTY
From the text: 3A) Schematic of the GUV containing fluorescently-labeled FK506 binding protein (FKBP) and FKBP-rapamycin binding (FRB) proteins. In this embodiment, FKBP peptide is fused to the positively charged myristoylated alanine-rich protein kinase c substrate (MARCKS) domain and binds to the negatively charged phosphatidylserine lipids present at the inner leaflet. The FKBP binding partner, FRB, is luminal. […] The normalized intensity profiles are the intensity traces of the dashed line in each image.
This was achieved by using the chemically inducible dimerization paradigm where FKBP (FK506 binding protein) and FRB (FKBP-rapamycin binding) protein can hetrodimerize in the presence of rapamycin.

On to `CO[C@H]1C[C@@H]2CC[C@@H](C)[C@@](O)(O2)C(=O)C(=O)N2CCCC[C@H]2C(=O)O[C@H]([C@H](C)C[C@@H]2CC[C@@H](O)[C@H](OC)C2)CC(=O)[C@H](C)/C=C(\C)[C@@H](O)[C@@H](OC)C(=O)[C@H](C)C[C@H](C)/C=C/C=C/C=C/1C` [rapamycin], for which the “Permeation of the GUV membrane” value is reported as “permeates the vesicles”.
